Data reported in US11964988B2, “Fused heterocyclic compounds as RET kinase inhibitors” (ARRAY BIOPHARMA INC., priority 2018, dated 2024).
Residue numbers refer to the chain shown, from its start.

Columns and labels:
[1] = biological target: G810R mutant RET kinase (Homo sapiens, UniProt P07949, G810R); assay: biochemical;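 note: HTRF KinEASE-TK enzymatic assay with 1 nM recombinant RET G810R, 1 h at 22 °C, dual-wavelength ratiometric readout, 100% control without compound, 0% from pre-quenched reactions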
Description: (§2) The potency of compounds inhibiting several different RET kinase forms (Wild Type, V804M, G810R, & G810S) were determined using CisBio's HTRF® KinEASE™-TK assay technology. […] After a 1 hour incubation at 22° C., the extent of reaction was determined using a PerkinElmer EnVision multimode plate reader via HTRF dual wavelength detection, and the percent of control (POC) was calculated using a ratiometric emission factor. One hundred POC was determined using DMSO only samples (no compound present), and 0 POC was determined using pre-quenched control reactions.
(§3) The potency of a compound inhibiting G810R or G810S mutant RET kinase was determined using CisBio's HTRF® KinEASE™-TK assay technology. The assays contained G810R or G810S mutant RET produced at Array Biopharma, Inc. (1 nM enzyme). […] After a 1-h incubation at 22° C., the extent of reaction was determined using a PerkinElmer EnVision multimode plate reader via HTRF dual wavelength detection, and the percent of control (POC) was calculated using a ratiometric emission factor. One hundred POC was determined using no test compounds, and 0 POC was determined using pre-quenched control reactions.

[2] = biological target: T1, HEK-293 cells expressing a G810R mutant RET Kif5b-RET fusion protein (Homo sapiens, UniProt P07949, G810R); assay: RET G810R Mutant Cell Assay (phospho-RET Tyr1062); assay type: cell-based; details: HEK-293 Kif5b-RET G810R, 1 hour incubation, phospho-RET normalized to GAPDH
T1 construct: KIF5B (N-terminal portion incl. coiled-coil); expressed in transfected cells; host or cells: HEK-293; the other entry of the earlier key: KIF5B (P33176, Kinesin-1 heavy chain)
T1 sequence (P07949 713-1063 G810R limits assumed): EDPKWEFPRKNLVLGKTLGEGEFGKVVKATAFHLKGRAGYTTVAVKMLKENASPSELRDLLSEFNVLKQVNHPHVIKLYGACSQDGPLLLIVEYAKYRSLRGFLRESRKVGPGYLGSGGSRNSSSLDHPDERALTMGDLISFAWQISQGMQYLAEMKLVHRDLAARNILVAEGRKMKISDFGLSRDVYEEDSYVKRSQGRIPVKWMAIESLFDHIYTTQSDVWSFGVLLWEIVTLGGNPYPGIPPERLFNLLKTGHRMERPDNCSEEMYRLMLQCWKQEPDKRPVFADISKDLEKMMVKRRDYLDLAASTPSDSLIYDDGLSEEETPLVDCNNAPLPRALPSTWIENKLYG
Description: (§1) The cellular potency of compounds inhibiting RET kinase were determined in HEK-293 cells expressing a G810R or G810S mutant RET Kif5b-RET fusion protein. Briefly, HEK-293 cells expressing a G810R or G810S mutant RET Kif5b-RET fusion protein were plated at 50K cells/well in 96 well poly-D-Lysine coated plates the day prior to the assay. The cells were incubated for 1 hour with test compound in DMEM (Dulbecco's Modified Eagle Medium) at a final DMSO concentration of 0.5%. […] After 1 hour the media was removed, the cells were fixed with 3.8% formaldehyde for 20 min, washed with PBS, and permeabilized for 10 min with 100% methanol. The plates were then washed with PBS-0.05% Tween20, and blocked with LI-COR Blocking solution (LI-COR Catalog No. 927-40000) for 1 hour. Plates were washed with PBS-0.05% Tween20, then incubated with anti-phospho-RET (Tyr1062) (Santa Cruz Catalog No. sc-20252-R) antibody and anti-GAPDH (Millipore Catalog No. MAB374) antibody for 2 hours. The plates were washed with PBS-0.05% Tween20, and incubated with anti-rabbit 680 (Molecular Probes Catalog No. A21109) and anti-mouse 800 (LI-COR Catalog No. 926-32210) secondary antibodies for 1 hour. All antibodies were diluted in LI-COR Block containing 0.05% Tween. The plates were washed with PBS-0.05% Tween20,100 μL PBS was added to each well, and the plates were read on a LI-COR Aerius fluorescent plate reader. The phospho-RET signal was normalized to the GAPDH signal. […] The POC values are fit to a 4 parameter logistic curve. The IC50 value is the point where the curve crosses 50 POC.

[3] = biological target: T2, HEK-293 cells expressing a G810S mutant RET Kif5b-RET fusion protein (Homo sapiens, UniProt P07949, G810S); assay: RET G810S Mutant Cell Assay (phospho-RET Tyr1062); assay type: cell-based; details: HEK-293 Kif5b-RET G810S, 1 hour incubation, phospho-RET normalized to GAPDH
T2 construct: KIF5B (N-terminal portion incl. coiled-coil); expressed in transfected cells; host or cells: HEK-293
T2 sequence (P07949 713-1063 G810S limits assumed): T1 sequence (P07949 713-1063 G810R limits assumed) with R98S
Description: as §1

[4] = biological target: G810S mutant RET kinase (Homo sapiens, UniProt P07949, G810S); assay: biochemical;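 note: HTRF KinEASE-TK kinase assay with recombinant enzyme, 1 h at 22 °C, dual-wavelength ratiometric read-out, percent of control (DMSO-only = 100, pre-quenched reaction = 0)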
Description: as §2, §3

[5] = biological target: T3, HEK-293 cells expressing a Kif5b-RET fusion protein (Homo sapiens, UniProt P07949); assay: RET Cell Assay (phospho-RET Tyr1062); assay type: cell-based; details: HEK-293 Kif5b-RET, 1 hour incubation, phospho-RET normalized to GAPDH; read-out: KIF5B-RET pTYR1062 Cell IC50
T3 construct: KIF5B (N-terminal portion incl. coiled-coil); expressed in transfected cells; host or cells: HEK-293; the other entry of the earlier key: KIF5B (P33176, Kinesin-1 heavy chain)
T3 sequence (P07949 713-1063 limits assumed): T1 sequence (P07949 713-1063 G810R limits assumed) with R98G
Description: as §1, with “a” for “a G810R or G810S mutant RET”, “PBS is” for “PBS was”, “values were” for “values are”

[6] = biological target: RET kinase Wild Type (Homo sapiens, UniProt P07949); assay: biochemical;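 note: HTRF kinase activity assay on RET enzyme, 1 h reaction at 22 °C, dual-wavelength readout as percent of control, DMSO-only wells as 100%, pre-quenched reactions as 0%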
[7] = biological target: RET kinase V804M (Homo sapiens, UniProt P07949, V804M); assay: RET Enzyme Assay (CisBio HTRF KinEASE-TK), V804M; assay type: biochemical; details: read-out: RET V804M Enz FRET IC50
Chain of RET kinase V804M (P07949 29-1114 V804M): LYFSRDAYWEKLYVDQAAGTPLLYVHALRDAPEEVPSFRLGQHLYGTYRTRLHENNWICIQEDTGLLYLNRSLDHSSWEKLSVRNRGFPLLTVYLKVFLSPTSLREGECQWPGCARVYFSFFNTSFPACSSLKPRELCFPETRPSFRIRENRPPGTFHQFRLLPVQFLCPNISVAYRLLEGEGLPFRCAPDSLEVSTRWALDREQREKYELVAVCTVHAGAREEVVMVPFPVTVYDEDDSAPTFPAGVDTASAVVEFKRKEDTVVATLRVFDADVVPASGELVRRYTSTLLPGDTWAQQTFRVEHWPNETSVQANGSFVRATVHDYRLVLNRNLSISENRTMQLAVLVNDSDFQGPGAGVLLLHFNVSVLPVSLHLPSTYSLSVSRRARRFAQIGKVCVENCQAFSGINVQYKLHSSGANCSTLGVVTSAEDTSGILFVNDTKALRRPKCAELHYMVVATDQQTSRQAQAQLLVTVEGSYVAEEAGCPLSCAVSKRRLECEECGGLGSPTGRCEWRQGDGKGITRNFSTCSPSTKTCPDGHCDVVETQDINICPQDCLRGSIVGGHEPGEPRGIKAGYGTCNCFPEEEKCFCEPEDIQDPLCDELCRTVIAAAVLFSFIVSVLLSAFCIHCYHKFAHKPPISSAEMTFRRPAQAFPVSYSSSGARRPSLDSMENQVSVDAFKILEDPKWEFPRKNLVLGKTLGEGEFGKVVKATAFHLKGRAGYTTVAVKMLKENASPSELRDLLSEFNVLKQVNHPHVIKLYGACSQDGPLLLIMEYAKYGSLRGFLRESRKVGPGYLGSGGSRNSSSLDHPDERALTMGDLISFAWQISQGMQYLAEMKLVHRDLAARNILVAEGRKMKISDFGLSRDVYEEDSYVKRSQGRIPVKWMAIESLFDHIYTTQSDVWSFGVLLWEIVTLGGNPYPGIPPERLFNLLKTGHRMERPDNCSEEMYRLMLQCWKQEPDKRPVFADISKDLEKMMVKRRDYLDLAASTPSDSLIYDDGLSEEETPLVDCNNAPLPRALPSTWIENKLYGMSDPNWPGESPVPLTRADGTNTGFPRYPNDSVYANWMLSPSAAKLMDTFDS
Description: as §2

Chain of G810S mutant RET kinase (P07949 29-1114 G810S): as the sequence (P07949 29-1114 V804M) above, with M776V, G782S counted along it
Chain of RET kinase Wild Type (P07949 29-1114): as the sequence (P07949 29-1114 V804M) above, with M776V counted along it
Chain of G810R mutant RET kinase (P07949 29-1114 G810R): as the sequence (P07949 29-1114 V804M) above, with M776V, G782R counted along it

Compound | IC50 [1] [nM] | IC50 [2] [nM] | IC50 [3] [nM] | IC50 [4] [nM] | IC50 [5] [nM] | IC50 [6] [nM] | IC50 [7] [nM]
CC(C)n1c2c(c3c(N)ncnc31)-c1cc3ccc(C(=O)Nc4ccn(CCC(F)(F)F)n4)cc3n1CCC2 [Example 101, 1-amino-5-isopropyl-N-(1-(3,3,3-trifluoropropyl)-1H-pyrazol-3-yl)-5,6,7,8-tetrahydropyrimido[5″,4″:4′,5′]pyrrolo[3′,2′: 3,4]azepino[1,2-a]indole-11-carboxamide] | 1420 | 75 | 62 | 805 | 43 | 135 | –
Nc1ncnc2c1c1c(n2-c2ccccc2)CNC(=O)c2c-1noc2C1CC1 [Example 110, 11-amino-3-cyclopropyl-7-phenyl-6,7-dihydroisoxazolo[4,3-c]pyrimido[5′,4′:4,5]pyrrolo[3,2-e]azepin-4(5H)-one 2,2,2-trifluoroacetate] | 214 | 537 | 201 | 284 | – | 411 | 1740
COC(=O)c1ccc2c(Cl)c3n(c2c1)C(=O)NCc1c-3c2c(N)ncnc2n1C(C)C [Example 75, Methyl 1-amino-14-chloro-5-isopropyl-8-oxo-5,6,7,8-tetrahydropyrimido[5″,4″:4′,5′]pyrrolo[2′,3′:5,6][1,3]diazepino[1,7-a]indole-11-carboxylate] | 421 | 170 | 191 | 51 | – | 82 | 2030
CNC(=O)c1ccc2c(Cl)c3n(c2c1)C(=O)NCc1c-3c2c(N)ncnc2n1C(C)C [Example 74, 1-Amino-14-chloro-5-isopropyl-N-methyl-8-oxo-5,6,7,8-tetrahydropyrimido[5″,4″:4′,5′]pyrrolo[2′,3′:5,6][1,3]diazepino[1,7-a]indole-11-carboxamide] | 2080 | 2940 | 918 | 289 | – | 353 | 6000
CC(C)n1c2c(c3c(N)ncnc31)-c1cc3ccc(C(=O)Nc4ccn(-c5ccccc5)n4)cc3n1CCC2 [Example 100, 1-amino-5-isopropyl-N-(1-phenyl-1H-pyrazol-3-yl)-5,6,7,8-tetrahydropyrimido[5″,4″:4′,5′]pyrrolo[3′,2′: 3,4]azepino[1,2-a]indole-11-carboxamide] | 1610 | – | 15 | 914 | 10 | 233 | 2860
COC(=O)c1ccc(-n2c3c(c4c(N)ncnc42)-c2noc(C4CC4)c2C(O)CC3)cc1 (stereo not drawn) [Example 113, Methyl 4-(11-amino-3-cyclopropyl-4-hydroxy-5,6-dihydroisoxazolo[4″,3″:6′,7′]cyclohepta[1′,2′:4,5]pyrrolo[2,3-d]pyrimidin-7(4H)-yl)benzoate 2,2,2-trifluoroacetate] | 106 | – | 274 | 63 | 513 | 102 | 169

Molecules with a lower IC50 [1], results first:

IC50 [1] [nM] | IC50 [2] [nM] | IC50 [3] [nM] | IC50 [4] [nM] | IC50 [5] [nM] | IC50 [6] [nM] | IC50 [7] [nM] | Compound
87 | – | 118 | 84 | 74 | 41 | 120 | Nc1ncnc2c1c1c(n2C2CCOC2)CCC(O)c2c-1noc2C1CC1 (stereo not drawn) [Example 121, 11-amino-3-cyclopropyl-7-(tetrahydrofuran-3-yl)-4,5,6,7-tetrahydro-isoxazolo[4″,3″:6′,7′]cyclohepta[1′,2′:4,5] pyrrolo[2,3-d]pyrimidin-4-ol]
52 | – | 280 | 155 | 67 | 38 | 60 | COC(=O)[C@H]1C[C@@H](n2c3c(c4c(N)ncnc42)-c2noc(C4CC4)c2C(O)CC3)C1 (stereo partly drawn) [Example 137, Methyl (1s,3s)-3-(11-amino-3-cyclopropyl-4-hydroxy-5,6-dihydroisoxazolo[4″,3″:6′,7′]cyclohepta[1′,2′:4,5]pyrrolo[2,3-d]pyrimidin-7(4H)-yl)cyclobutane-1-carboxylate 2,2,2-trifluoroacetate]
40 | – | 131 | 32 | 34 | 12 | 64 | Nc1ncnc2c1c1c(n2[C@@H]2C[C@@H](O)[C@@H](O)C2)CCC(O)c2c-1noc2C1CC1 (stereo partly drawn) [Example 130, (1r,2s,4s)-4-(11-amino-3-cyclopropyl-4-hydroxy-5,6-dihydroisoxazolo[4″,3″:6′,7′]cyclohepta[1′,2′:4,5]pyrrolo[2,3-d]pyrimidin-7(4H)-yl)cyclopentane-1,2-diol]
28 | – | 77 | 26 | 31 | 14 | 38 | Nc1ncnc2c1c1c(n2C(CF)CF)CCC(O)c2c-1noc2C1CC1 (stereo not drawn) [Example 122, 11-amino-3-cyclopropyl-7-(1,3-difluoropropan-2-yl)-4,5,6,7-tetrahydro-isoxazolo[4″,3″:6′,7′]cyclohepta[1′,2′:4,5] pyrrolo[2,3-d]pyrimidin-4-ol]
